Columns and labels:
[1] = Pharmacokinetic study, serum half-life; format: in vivo; conditions: mice
mice = experiment: Acute oral toxicity in mice; format: in vivo; conditions: up to an acute oral dose of 5 gm per Kg body weight
rats = experiment: Acute oral toxicity in rats; format: in vivo; conditions: up to an acute oral dose of 5 gm per Kg body weight
[2] = test system: hematopoietic stem cells in the bone marrow; experiment: Hoechst side population assay of bone marrow; format: in vivo, BALB/c mice; conditions: 500 mg/Kg bw orally for 3 consecutive days
Method: 8- to 9 weeks-old inbred BALB/c male mice, weighing approximately 20-25 g, were grouped into untreated control and CHL treated groups.
(§1) CHL formulation dose and duration: 500 mg/Kg bw given orally for 3 consecutive days.
Side population analysis: The femur bones the above mentioned mice were dissected and the marrow was flushed out into cold Iscove's Modified Dulbecco's Medium (IMDM), 2% FBS using a 21-gauge needle. Nucleated cells were counted using Hemocytometer and trypan blue dye exclusion. Three million cells from each mouse were resuspended in pre-warmed (37° C.) DMEM without phenol red. Hoechst 33342 ([…]) was added and cells were incubated at 37° C. for 90 min with intermittent shaking. At the end of incubation, cells were washed with DMEM without phenol red and kept on ice and acquired on a flow cytometer within 2 h. Verapamil (100 μM concentration) treated bone marrow cells were used to identify the Hoechst side population in this assay.
Verapamil dose: 100 μM final concentration

G-CSF = experiment: Serum levels of G-CSF as a function of time; format: in vivo, mice; conditions: 500 mg/Kg bw orally for 3 days; 2, 24, 48 and 72 hrs
Method: as §1

Gr-1+ granulocytes = experiment: Frequency of Gr-1+ granulocytes in bone marrow and blood; format: in vivo, mice
Method: Percent granulocytes are a biological marker for efficacy of chlorophyllin as a radioprotector in vivo. […] This is the preferred dose range. Although percentage of granulocytes increases at doses 720 and 900 mg/kg body weight, these doses are not preferred to be translated to humans. (FIG. 1E)

[3] = test system: mice exposed to whole body irradiation; experiment: Protection against whole body irradiation induced mortality (30 days survival); format: in vivo, BALB/c mice; conditions: for Extent of protection offered to mice against radiation induced mortality: Oral; for protection against radiation induced mortality as monitored by 30 days survival: 100-1000 mg/kg b.w. (preferred 180-500) orally, table of expected outcome
Method: (§2) Experimental animals 8- to 9 weeks-old inbred BALB/c male mice, weighing approximately 20-25 g, were treated with CHL formulation at the dose of 500 mg/Kg bw given orally for 3 consecutive days followed by whole body irradiation [using a 60Co γ-irradiator at a dose rate of 1 Gy/min (BhabhatronI II, Panacea, India)] of 7.5 Gy in one group and 6 Gy radiation to another group. Treated groups were compared to untreated control and mice treated only with CHL formulation at the given dose and mice with whole body irradiation without the CHL formulation.
To assess the in vivo radio protective efficacy of chlorophyllin, mice were given three consecutive oral administrations of: CHL formulation 1 containing chlorophyllin (500-mg/kg bw) and penicillin (10-50 mg/kg+ streptomycin 20-80 mg/kgbw) or CHL formulation 2 containing chlorophyllin (500 mg/kg bw) and tetracycline (20-80 mg/kgbw) at 24 h interval and were exposed to 8 Gy dose of whole body irradiation (which is used as a supplement to surgery during radiotherapy of cancer patients) 2 h after the last injection. Formulation 3 is chlorophyllin alone given at a dose of 500 mg/kg bw for three consecutive days with a gap of 24 h between each dose.
Trials were conducted where chlorophyllin formulation ranging from 90 mg/kg bw to 2000 mg/kg body weight were administered to mice by oral gavage for three to four consecutive days at 24 h interval between doses. Alternatively, chlorophyllin was administered by intraperitoneal route (100 mg/kg body weight) for three consecutive days at 24 h interval. The mice were exposed to different doses of whole body irradiation (7.0 Gy, 7.5 Gy or 8 Gy) 2 h after last dose of chlorophyllin. The mice were monitored for changes in body weight and survival up to 30 days after WBI.

bone marrow cellularity = experiment: Bone marrow cellularity after 6 Gy whole body radiation; format: in vivo, BALB/c mice; conditions: 500 mg/Kg bw orally for 3 consecutive days
Method: as §2

[4] = test system: lineage negative cells in the bone marrow; experiment: Cell cycle of lineage negative cells in the bone marrow; format: in vivo, mice; conditions: specified dose
bone marrow cells = experiment: Colony forming units in bone marrow cells of whole body irradiated mice; format: cell-based; conditions: bone marrow cells in vitro
normal lung epithelia = experiment: Gamma radiation (4 Gy)-induced injury to lung epithelial cells (cellular atypia); format: in vivo
[5] = test system: A549 human lung cancer cells; experiment: Clonogenic survival assay, A549; format: cell-based
Method: (§3) A549 and MCF 7 cells (2000 cells for control, 4 Gy and 5000 cells for 8 Gy treatments) were plated overnight in 6 well plates followed by treatment with indicated concentrations of chlorophyllin (0, 10, 20, 50 or 100 μM) for 2 h and exposed to indicated doses of radiation. After radiation exposure plates were incubated at 37° C. in CO2 incubator for 12 days for the development of colonies. After the colony formation, the plates were washed with PBS, fixed with methanol and stained with crystal violet. The colonies with more than 50 cells were counted and the survival fraction was calculated using the following formula: Survival fraction=No. of colonies/[no. of cells plated X (plating efficiency/100)], where plating efficiency is the ratio between the number of colonies developed to the number of cells plated in control.

[6] = test system: MCF7 human breast cancer cells; experiment: Clonogenic survival assay, MCF7; format: cell-based
Method: as §3

[7] = test system: A549 human lung cancer cells; experiment: γH2AX foci formation assay, A549; format: cell-based; conditions: 50 μM
Method: (§4) A549 cells and MCF (3×10^5 cells) were grown on the coverslip, treated with 50 μM of chlorophyllin, followed by 4 Gy radiation exposure. At different time intervals after irradiation (either 15 min or 120 min), cells were fixed with 4% paraformaldehyde, permeabilized using Triton X-100, blocked with 5% bovine serum albumin and then treated with anti-γ-H2AX antibody. Then cells were stained with FITC labeled secondary antibody and visualized using fluorescence microscope. The average number of foci per cell was calculated after counting the foci from 100 cells per group.

[8] = test system: MCF7 human breast cancer cells; experiment: γH2AX foci formation assay, MCF7; format: cell-based; conditions: 50 μM
Method: as §4

[9] = test system: MCF-7 human breast cancer cells; experiment: Mitotic catastrophe, Hoechst stained nuclei; format: cell-based
Method: MCF-7 cells (3×10^5 cells) were grown on the coverslip, treated with indicated concentrations of chlorophyllin (0, 10, 20, 50 or 100 μM) and exposed for 48 hrs to indicated doses of radiation (4 Gy and 8 Gy). After irradiation cells were fixed and stained with Hoechst and observed under fluorescence microscope. Cells with mitotic abnormalities have been counted for each group.

MCF-7 cells = experiment: Reactive oxygen species by DCFDA, DHE, DHR123 fluorescence; format: cell-based, human; conditions: 50 μM
Method: MCF-7 cells (1×10^5) were stained with H2DCF-DA (10 μM) Ex./Em. 485/535 nm or dihydroethidium (DHE 5 μM) 518/605 nm or DHR 123 (5 μM) 500/536 nm for 20 min and incubated with chlorophyllin (50 μM) or vehicle for indicated time intervals at 37° C. Cells were exposed to 4 Gy IR and fluorescence was monitored at respective wavelengths using BioTek Microplate Reader (Synergy).

[10] = test system: MCF7 human breast cancer cells; experiment: Cancer stem cell frequency (Aldefluor, CD24-CD44+, Hoechst side population), MCF7; format: cell-based; conditions: 4 Gy or 8 Gy
Method: (§5) For cancer stem cell analysis, by Aldefluor assay, MCF7 cells and MDA MB231 cells were stained with either Aldefluor reagent or PE-[…], APC-Cy7CD44, antibodies for 20 min on ice. The cells were washed and fixed with 1% paraformaldehyde for 20 min and stained with Hoechst 33342 (10 mg/ml) for 4 h. Isotype controls stained cells, single antibody stained cells, and fluorescence minus one (FMO) controls were used for compensation and gating. The cells were acquired on a flow Cytometer (Partec Cyflow) and analysed using FlowJo 7.6.5 (Treestar, Inc., Ashland) software.

[11] = test system: MDA-MB 231 triple negative breast cancer cells; experiment: Cancer stem cell frequency (CD24-CD44+, Hoechst side population), MDA-MB231; format: cell-based, human; conditions: 50 μM, 4 Gy or 8 Gy
Method: as §5

[12] = test system: MCF-7 human breast cancer xenograft tumors; experiment: In vivo radiosensitization of human breast cancer xenograft in SCID mice
Method: MCF-7 cells (10×10^6 in 50 μl 1×PBS and 50 μl matrigel) were injected subcutaneously in foot pad of each mouse and tumors were monitored till they developed to measurable size. Mice were then treated with 500 mg/Kg bw chlorophyllin in PBS orally for three consecutive days. After last dose administration mice were locally exposed to IR 6 Gy (at the site of tumor) and subsequently monitored for 30 days for tumor growth and survival. Measurements of tumor were taken on alternate days using digital Vernier caliper and tumor volume was recorded. At the end of 30 days tumour mass was excised for further analysis.

[13] = test system: mice exposed to whole body irradiation; experiment: Protection against whole body irradiation induced mortality (30 days survival); format: in vivo, BALB/c mice; conditions: 100 mg/kg bw, Intra peritoneal, 7.0 Gy
[14] = chlorophyllin alone, 10-100 μM, 2 h

Q: For chlorophyllin, which serum half-life [1] is on record?
A: 2.363 h

Q: And the toxicity (mice)?
A: did not show any toxicity

Q: What about the toxicity (rats) of the same substance?
A: did not show any toxicity

Q: And the “increase of hematopoietic stem cells versus control” value [2]?
A: 2-3 fold

Q: What about the “abundance of hematopoietic stem cells (Hoechst side population)” value ([2]; control 0.121%) of the same substance?
A: 0.573%

Q: What about the “serum levels of G-CSF” value (G-CSF) of the same substance?
A: maximum rise after 24 hrs

Q: And the “neutrophil frequency in the peripheral blood” value (Gr-1+ granulocytes; 500 mg/Kg bw orally for 3 days)?
A: increased neutrophil frequency

Q: What about the “production of granulocytes (Gr-1+) in bone marrow” value (Gr-1+ granulocytes; 500 mg/Kg bw orally for 3 days) of the same substance?
A: increase in the production of granulocytes

Q: What about the “percent granulocytes, dose response” value (Gr-1+ granulocytes; doses up to 900 mg/kg body weight) of the same substance?
A: increases up to 180 mg/kg and then plateaus up to 540 mg/kg body weight dose

Q: What about the “Extent of protection offered to mice against radiation induced mortality” value (from here on “Extent of protection offered to mice”) ([3]; 90 mg/kg bw, 3 days, 7.5 Gy) of the same substance?
A: 66.6%

Q: And the “Extent of protection offered to mice” value ([3]; 180 mg/kg bw, 3 days, 7.5 Gy)?
A: up to 100%

Q: And the “Extent of protection offered to mice” value ([3]; 180 mg/kg bw, 3 days, 7.5 Gy, listed as Chlorophyllin)?
A: 100%

Q: What about the “Extent of protection offered to mice” value ([3]; 500 mg/kg bw, 3 days, 7.5 Gy) of the same substance?
A: 70%

Q: What about the “Extent of protection offered to mice” value ([3]; 2000 mg/kg bw, 4 days, 7.0 Gy) of the same substance?
A: 50%

Q: What about the “protection against whole body irradiation induced mortality” value ([3]; 7.5 Gy, 500 mg/Kg bw orally for 3 consecutive days) of the same substance?
A: significantly protected

Q: What about the “protection against radiation induced mortality as monitored by 30 days survival” value ([3]; 7.5 Gy, three consecutive days, without antibiotics) of the same substance?
A: 100%

Q: And the “rescue from WBI-induced mortality, 30 days survival” value ([3]; 8 Gy WBI, 500 mg/kg bw, three consecutive days, 80% of irradiated mice died within 17 days)?
A: rescued all the mice

Q: What about the “protection against radiation induced mortality as monitored by 30 days survival” value ([3]; 8 Gy, three consecutive days, with antibiotics) of the same substance?
A: 100%

Q: And the “Extent of protection offered to mice” value ([3]; chlorophyllin 500 mg/kg bw, 3 days, 8.0 Gy)?
A: 60%

Q: And the “recovery from radiation induced bone marrow aplasia” value (bone marrow cellularity)?
A: enhanced the recovery

Q: And the “cell cycle effect in lineage negative cells in the bone marrow” value [4]?
A: transient cell cycle arrest

Q: And the “number of colony forming units (CFUs) in bone marrow cells” value (bone marrow cells)?
A: significantly increased

Q: What about the “gamma radiation-induced injury to normal lung epithelia (cellular atypia)” value (normal lung epithelia) of the same substance?
A: reduced

Q: And the “sensitization to radiation induced loss of clonogenic capacity” value ([5]; A549, 4 Gy, CHL 10, 20, 50 or 100 μM)?
A: able to sensitize

Q: What about the “colony forming ability of A549 cells as compared to control” value [5, 14] of the same substance?
A: significantly decreased

Q: What about the “sensitization to radiation induced loss of clonogenic capacity” value ([6]; MCF-7, 4 Gy, CHL 10, 20, 50 or 100 μM) of the same substance?
A: significantly sensitized

Q: What about the “colony forming ability of MCF-7 cells as compared to control” value [6, 14] of the same substance?
A: significantly decreased

Q: And the “number of γ-H2AX foci versus radiation alone” value ([7]; 15 min after 4 Gy)?
A: did not have any effect

Q: And the “number of γ-H2AX foci versus radiation alone” value ([7]; 120 minutes after 4 Gy)?
A: significantly higher

Q: What about the “number of γ-H2AX foci versus radiation alone” value ([8]; 15 min after 4 Gy) of the same substance?
A: did not have any effect

Q: What about the “number of γ-H2AX foci versus radiation alone” value ([8]; 120 minutes after 4 Gy) of the same substance?
A: significantly higher

Q: And the “radiation toxicity in human breast cancer cells in vitro” value ([9]; 4 Gy or 8 Gy, 10-100 μM)?
A: enhanced the radiation toxicity

Q: What about the “mitotic abnormalities (micronuclei, multinucleated giant cells)” value ([9]; chlorophyllin prior to 4 Gy or 8 Gy, 48 h) of the same substance?
A: pattern of mitotic catastrophe

Q: What about the “radiation induced increase in intracellular ROS levels” value (MCF-7 cells; 4 Gy IR) of the same substance?
A: attenuated

Q: And the “background levels of free radicals” value (MCF-7 cells; no radiation)?
A: able to scavenge

Q: And the “percentage of CD24-CD44+ cancer stem cells, combination with radiation” value ([10]; 50 μM)?
A: more effective than radiation or chlorophyllin alone

Q: What about the “radiation induced increase in ALDH-positive cells” value ([10]; 100 μM) of the same substance?
A: significantly attenuated

Q: And the “percentage of CD24-CD44+ cancer stem cells, combination with radiation” value [11]?
A: more effective than radiation or chlorophyllin alone

Q: What about the “prevention of growth of human breast cancer cells in SCID mice” value ([12]; 500 mg/Kg bw orally for three days + 6 Gy focal irradiation) of the same substance?
A: most effective

Q: And the “reduction in tumor after exposure to IR as compared to control mice bearing human xenograft” value ([12]; 6 Gy, 100-1000 mg/kg b.w. (preferred 180-500) orally, three consecutive days, without antibiotics, table of expected outcome)?
A: (50%

Q: What about the tumour volume ([12]; chlorophyllin alone, 500 mg/Kg bw orally for three consecutive days) of the same substance?
A: significant decrease

Q: What about the “Extent of protection offered to mice” value ([13]; 1 day) of the same substance?
A: 30%

Q: And the “Extent of protection offered to mice” value ([13]; 4 days)?
A: 70%

From patent publication US10183026B2, “Method of adjuvant treatment with chlorophyllin containing therapeutic preparation including for radioprotection of normal tissues during radiation therapy and kit therefor” (priority 2016, dated 2019)
